According to patent US20020098248A1, “Method for treating and/or preventing infections caused by methicillin-resistant Staphylococcus aureus” (priority 2000, published 2002):

Tested on: Staphylococcus, particularly MRSA
Assay: Examination of catechin for antimicrobial effect
Format: cell-based
Settings: catechin only, even if it has a high concentration

catechin
antimicrobial effect against Staphylococcus, particularly MRSA: does not provide a desired antimicrobial effect
